Read-outs that look alike come from different tables or passages of the source.
How the values were obtained:
[1] = system: HCV genotype 1a (H77 strain) replicon in HUH-7 cells; experiment: HCV replicon luciferase reporter assay, genotype 1a; type: cell-based; conditions: Hepatitis C virus, Huh-7, 72 h, 3 days incubation
In short: (§1)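 Replicon inhibition for both genotypes was measured as Renilla luciferase signal (EnduRen, 7.5 μM final, 2 h) after 3-day, 37° C exposure of replicon-bearing HUH-7 cells in 4% FCS DMEM, 0.5% DMSO. The 1b construct carries S1179I; the 1a H77 construct carries P1496L and S2204I. Twenty-point, 3-fold dilutions were fitted four-parametrically for EC50, and CC50 was taken from multiplexed Cell Titer-Blue.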

[2] = system: HCV genotype 1b (Con1) replicon in HUH-7 cells; experiment: HCV replicon luciferase reporter assay, genotype 1b; type: cell-based; conditions: Hepatitis C virus, Huh-7, 72 h, 3 days incubation
In short: as §1

[3] = HCV genotype 1a replicon luciferase assay, range class, read-out: LE_1a (EC50, range)
[4] = HCV genotype 1b replicon luciferase assay, range class, read-out: LE_1b (EC50, range)
[5] = HCV genotype 1a replicon luciferase, read-out: LE_1a (EC50, range)
[6] = HCV genotype 1b replicon luciferase, read-out: LE_1b (EC50, range)
[7] = HCV genotype 1a replicon luciferase, read-out: LE_1a (EC50)
[8] = HCV genotype 1b replicon luciferase, read-out: LE_1b (EC50)

`COCCOc1cnc(O[C@@H]2C[C@H]3C(=O)N[C@]4(C(=O)NS(=O)(=O)C5CC5)C[C@H]4/C=C\CC[C@H](C)C[C@@H](C)[C@H](NC(=O)OC(C)(C)C)C(=O)N3C2)c2ccc(OC)cc12` [Compound 1154, tert-butyl ((2R,6S,7R,9S,13aS,14aR,16aS,Z)-14a-((cyclopropylsulfonyl)carbamoyl)-2-((6-methoxy-4-(2-methoxyethoxyl)isoquinolin-1-yl)oxy)-7,9-dimethyl-5,16-dioxo-1,2,3,5,6,7,8,9,10,11,13a,14,14a,15,16,16a-hexadecahydrocyclopropa[e]pyrrolo[1,2-a][1,4]diazacyclopentadecin-6-yl)carbamate] showed an EC50 [1, 3] of less than 5.46 nM and an EC50 [2, 4] of less than 5.46 nM.

`CC[C@@H]1C[C@H](C)CC/C=C\[C@@H]2C[C@@]2(C(=O)NS(=O)(=O)C2CC2)NC(=O)[C@@H]2C[C@@H](Oc3nccc4cc(OC)ccc34)CN2C(=O)[C@H]1NC(=O)OC(C)(C)C` [Compound 4005, tert-butyl (2R,6S,7R,9R,13aS,14aR,16aS,Z)-14a-(cyclopropylsulfonylcarbamoyl)-7-ethyl-2-(6-methoxyisoquinolin-1-yloxy)-9-methyl-5,16-dioxo-1,2,3,5,6,7,8,9,10,11,13a,14,14a,15,16,16a-hexadecahydrocyclopropa[e]pyrrolo[1,2-a][1,4]diazacyclopentadecin-6-ylcarbamate] showed an EC50 [1, 5] of less than 5.46 nM and an EC50 [2, 6] of less than 5.46 nM.

In the case of `CC[C@@H]1C[C@H](C)CC/C=C\[C@@H]2C[C@@]2(C(=O)NS(=O)(=O)C2(C)CC2)NC(=O)[C@@H]2C[C@@H](Oc3nc(OC)cc4ccccc34)CN2C(=O)[C@H]1NC(=O)OC(C)(C)C` [Compound 6005, tert-butyl ((2R,6S,7R,9R,13aS,14aR,16aS,Z)-7-ethyl-2-((3-methoxyisoquinolin-1-yl)oxy)-9-methyl-14a-(((1-methylcyclopropyl)sulfonyl)carbamoyl)-5,16-dioxo-1,2,3,5,6,7,8,9,10,11,13a,14,14a,15,16,16a-hexadecahydrocyclopropa[e]pyrrolo[1,2-a][1,4]diazacyclopentadecin-6-yl)carbamate], the EC50 [1, 7] is reported as 1.29 nM, the EC50 [1, 5] is reported as less than 5.46 nM and the EC50 [2, 8] is reported as 0.28 nM. The EC50 [2, 6] was less than 5.46 nM.

`CCn1nc(O[C@@H]2C[C@H]3C(=O)N[C@]4(C(=O)NS(=O)(=O)C5CC5)C[C@H]4/C=C\CC[C@H](C)C[C@@H](C)[C@H](NC(=O)C(=O)N(C)C)C(=O)N3C2)c2ccccc2c1=O` [Compound 5075, N1-((2R,6S,7R,9S,13aS,14aR,16aS,Z)-14a-((cyclopropylsulfonyl)carbamoyl)-2-((3-ethyl-4-oxo-3,4-dihydrophthalazin-1-yl)oxy)-7,9-dimethyl-5,16-dioxo-1,2,3,5,6,7,8,9,10,11,13a,14,14a,15,16,16a-hexadecahydrocyclopropa[e]pyrrolo[1,2-a][1,4]diazacyclopentadecin-6-yl)-N2,N2-dimethyloxalamide] showed an EC50 [1, 7] of no less than 1000 nM, an EC50 [1, 5] greater than 87.4 nM and an EC50 [2, 8] of 1000 nM. The EC50 [2, 6] was greater than 87.4 nM.

`CC(C)n1nc(O[C@@H]2C[C@H]3C(=O)N[C@]4(C(=O)NS(=O)(=O)C5(C)CC5)C[C@H]4/C=C\CC[C@H](C)C[C@@H](C)[C@H](NC(=O)OC(C)(C)C)C(=O)N3C2)c2ccccc2c1=O` [Compound 1003, tert-butyl ((2R,6S,7R,9S,13aS,14aR,16aS,Z)-2-((3-isopropyl-4-oxo-3,4-dihydrophthalazin-1-yl)oxy)-7,9-dimethyl-14a-(((1-methylcyclopropyl)sulfonyl)carbamoyl)-5,16-dioxo-1,2,3,5,6,7,8,9,10,11,13a,14,14a,15,16,16a-hexadecahydrocyclopropa[e]pyrrolo[1,2-a][1,4]diazacyclopentadecin-6-yl)carbamate] was tested, and the EC50 [1, 3] was greater than 87.4 nM and the EC50 [2, 4] was greater than 87.4 nM.

With `CC[C@@H]1C[C@H](C)CC/C=C\[C@@H]2C[C@@]2(C(=O)NS(=O)(=O)C2CC2)NC(=O)[C@@H]2C[C@@H](Oc3ncc(N4CCOCC4)c4cc(OC)c(F)cc34)CN2C(=O)[C@H]1NC(=O)OC(C)(C)C(F)(F)F` [Compound 4243] the EC50 ([1]; GETYPE1A, HCV genotype 1a replicon luciferase, read-out: LE_1a (EC50, range)) was 1.01 to 5 nM and the EC50 ([2]; GETYPE1B, HCV genotype 1b replicon luciferase, read-out: LE_1b (EC50, range)) was 0.51 to 1 nM.

For `COc1ccc2c(O[C@@H]3C[C@H]4C(=O)N[C@]5(C(=O)NS(=O)(=O)C6CC6)C[C@H]5/C=C\CC[C@@H](C)C[C@@H](C)[C@H](NC(=O)O[C@@H]5C[C@@H]6C[C@@H]6C5)C(=O)N4C3)nc(-c3ccc(F)cc3)cc2c1` [Compound 3046, (1R,3r,5S)-bicyclo[3.1.0]hexan-3-yl((2R,6S,7R,9R,13aS,14aR,16aS,Z)-14a-((cyclopropylsulfonyl)carbamoyl)-2-((3-(4-fluorophenyl)-6-methoxyisoquinolin-1-yl)oxy)-7,9-dimethyl-5,16-dioxo-1,2,3,5,6,7,8,9,10,11,13a,14,14a,15,16,16a-hexadecahydrocyclopropa[e]pyrrolo[1,2-a][1,4]diazacyclopentadecin-6-yl)carbamate], the EC50 [1, 3] was less than 5.46 nM and the EC50 [2, 4] was less than 5.46 nM.

`C[C@H]1CC/C=C\[C@@H]2C[C@@]2(C(=O)NS(=O)(=O)C2CC2)NC(=O)[C@@H]2C[C@@H](Oc3nccc4c5c(ccc34)OCCO5)CN2C(=O)[C@@H](NC(=O)O[C@@H]2C[C@@H]3C[C@@H]3C2)[C@H](C)C1` [Compound 5263, (1R,3r,5S)-bicyclo[3.1.0]hexan-3-yl((2R,6S,7R,9S,13aS,14aR,16aS,Z)-14a-((cyclopropylsulfonyl)carbamoyl)-2-((2,3-dihydro-[1,4]dioxino[2,3-f]isoquinolin-7-yl)oxy)-7,9-dimethyl-5,16-dioxo-1,2,3,5,6,7,8,9,10,11,13a,14,14a,15,16,16a-hexadecahydrocyclopropa[e]pyrrolo[1,2-a][1,4]diazacyclopentadecin-6-yl)carbamate] gave an EC50 [1, 5] of 4.82 to 103 nM and an EC50 [2, 6] of less than 5.46 nM.

Compound `[2H]C([2H])([2H])C(OC(=O)N[C@@H]1C(=O)N2C[C@H](Oc3nccc4cc(OC)ccc34)CC2C(=O)N[C@]2(C(=O)NS(=O)(=O)C3(C)CC3)C[C@H]2/C=C\CC[C@@H](C)C[C@H]1C)(C([2H])([2H])[2H])C(F)(F)F` (stereo partly drawn) [Compound 5175, 1,1,1,3,3,3-hexadeutero-2-(trifluoromethyl)propan-2-yl((2R,6S,7R,9R,13aS,14aR,16aS,Z)-2-((6-methoxyisoquinolin-1-yl)oxy)-7,9-dimethyl-14a-(((1-methylcyclopropyl)sulfonyl)carbamoyl)-5,16-dioxo-1,2,3,5,6,7,8,9,10,11,13a,14,14a,15,16,16a-hexadecahydrocyclopropa[e]pyrrolo[1,2-a][1,4]diazacyclopentadecin-6-yl)carbamate] has an EC50 [1, 5] of less than 5.46 nM and an EC50 [2, 6] of less than 5.46 nM.

For `COc1ccc2c(O[C@@H]3C[C@H]4C(=O)N[C@]5(C(=O)NS(=O)(=O)C6CC6)C[C@H]5/C=C\CC[C@@H](C)C[C@@H](C)[C@H](NC(=O)OC(C)(C)C)C(=O)N4C3)nc(-c3ccc4c(c3)OCCO4)cc2c1` [Compound 5239, tert-butyl ((2R,6S,7R,9R,13aS,14aR,16aS,Z)-14a-((cyclopropylsulfonyl)carbamoyl)-2-((3-(2,3-dihydrobenzo[b][1,4]dioxin-6-yl)-6-methoxyisoquinolin-1-yl)oxy)-7,9-dimethyl-5,16-dioxo-1,2,3,5,6,7,8,9,10,11,13a,14,14a,15,16,16a-hexadecahydrocyclopropa[e]pyrrolo[1,2-a][1,4]diazacyclopentadecin-6-yl)carbamate], the EC50 [1, 5] was less than 5.46 nM and the EC50 [2, 6] was less than 5.46 nM.
